# Results: patent US11103605B2, “PET-imaging immunomodulators” (BRISTOL-MYERS SQUIBB COMPANY, priority 2016, dated 2021)
# Where “and” joins values, the source holds several entries; their conditions need not be identical. Equal values may be shown once.
# Tests used:
# [1] = PET imaging of mice bearing bilateral xenograft tumors: hPD-L1(+) tumor; assay type: in vivo, mouse; conditions: mouse, hPD-L1(+) L2987 xenograft tumor, iv, total radioactivity, mean of 4 mice
# Description: (§5) Mice bearing bilateral xenograft tumors were produced by introducing 2×10^6 hPD-L1(+) L2987 human lung carcinoma cells and 4×10^6 hPD-L1(−) HT-29 human colon carcinoma cells subcutaneously on opposite sides of the mouse. Once tumors reached approximately 300 mm^3 (approximately 2-3 weeks after cell implantation), animals were selected for imaging. The body weight and tumor size of each study were measured and recorded on the imaging day before imaging procedure. Mice were placed in an anesthetic induction chamber and 3% isoflurane inhalant anesthesia was delivered in 100% O2 at a rate of 1-1.5 L/min. Once sedated, mice were removed from the induction chamber and placed into a plexiglass 4-chamber mouse hotel (custom-made by BMS-Applied Biotechnology group), while continuing to receive 1-1.5% isoflurane inhalant anesthesia and delivered in 100% O2 at a rate of 2 L/min via the nose-cone. Animal were kept warm using an external standalone temperature regulating unit (M2M Imaging Corp) to prevent hypothermia during imaging. Mouse respiration was continuously monitored during imaging procedures and isoflurane may be adjusted dependent on depth of anesthesia. Mice were then placed into a custom animal holder with capacity for 4 animals, where they remained under anesthesia for the duration of the study. The animal holder was transferred to the microPET® F120™ scanner (Siemens Preclinical Solutions, Knoxville, Tenn.). The axial field of view of this instrument is 7.6 cm. With this limitation, animals were positioned such that the scanning region was from immediately in front of the eyes to approximately the base of the tail. A 10-minute transmission image was first acquired using a ^57Co point source for the purpose of attenuation correction of the final PET images. Following the transmission scan, radiotracer solutions were administered via the previously installed tail vein catheters and a 2 hour emission image was acquired. Injected radiotracer solutions were injected into a total 8 mice (body weight: 22.2±2.0 gram) with tumor volumes 203.0±51.4 mm^3 for HT-29 and 422.9±128.4 mm^3 for L2987 were imaged 16-17 days post cell implantation. Each mouse received a single injection of SC dose of PD-L1 binding macrocyclic peptide 60 mg/kg (N=4) or saline (N=4) 30 minute before the [^18F]labelled macrocyclic PD-L1 peptide (124.0±8.4 μCi, tracer mass: 1.0±0.4 μg/kg) IV injection. Images were reconstructed using a maxiumum a posteriori (MAP) algorithm with attenuation correction using the collected transmission images and corrected for radioisotope decay. In the final images, regions of interest (ROIs) were drawn around the tumor boundary using ASIPro software (Siemens Preclinical Solutions). Time-activity curves were calculated for each ROI to yield a quantitative view of radiotracer within the tumor volume over the course of the 2 hour emission image. For final comparison, individual time-activity curves were normalized based on the injected radiotracer dose for each specific animal. Radiotracer uptake was compared across tumors using the final 10 minutes of each time-activity curve (90-100 minutes post-radiotracer injection).
# [2] = system: hPD-L1(+) L2987 human lung carcinoma xenografts; test: as above; assay type: in vivo, mouse; conditions: for SUV in L2987: individual mice
# Description: as §5
# [3] = in vivo; conditions: mouse, hPD-L1(−) HT-29 xenograft tumor, iv, total radioactivity
# Description: In this experiment, the [^18F]labelled macrocyclic PD-L1 peptide was produced as described in the above Examples, was tested for its ability to discriminate between hPD-L1-positive tumors and hPD-L1-negative tumors in mice.
# Mice bearing bilateral xenograft tumors were produced by introducing 2×10^6 hPD-L1(+) L2987 human lung carcinoma cells and 4×10^6 hPD-L1(−) HT-29 human colon carcinoma cells subcutaneously on opposite sides of the mouse. Once tumors reached approximately 300 mm^3 (approximately 2-3 weeks after cell implantation), animals were selected for imaging. The body weight and tumor size of each study were measured and recorded on the imaging day before imaging procedure. Mice were placed in an anesthetic induction chamber and 3% isoflurane inhalant anesthesia was delivered in 100% O2 at a rate of 1-1.5 L/min. […] Mouse respiration was continuously monitored during imaging procedures and isoflurane may be adjusted dependent on depth of anesthesia. […] Time-activity curves were calculated for each ROI to yield a quantitative view of radiotracer within the tumor volume over the course of the 2 hour emission image. […]
# [4] = PET imaging in non-human primate, baseline and blocking study; conditions: male, cynomolgus monkey, iv, total radioactivity
# Description: (§1) Cynomolgus male monkeys with a previously installed vascular access port (VAP) were anesthetized with 0.02 mg/kg atropine, 5 mg/kg Telazol and 0.01 mg/kg buprenorphine I.M. (all drawn into a single syringe). An i.v. catheter is then placed in the cephalic vessel for fluid administration during the imaging procedure to maintain hydration. Animals were intubated with an endotracheal tube—usually 3.0 mm and transferred to the imaging bed of a microPET® F220TM PET instrument (Siemens Preclinical Solutions, Knoxville, Tenn.). Anesthesia was maintained with isoflurane and oxygen and I.V. fluids (LRS) were administered at a rate of 6 ml/kg/hr during the imaging procedure. As the axial field of view of the microPET® F220™ instrument is only 7.6 cm, images over 5 distinct bed positions were acquired to create a composite image of the animals from just above the heart through approximately the pelvis.
# (§2) For each field of view, a 10 minute transmission image was first acquired using a ^57Co point source for the purpose of attenuation correction of the final PET images. Once transmission images were acquired for all bed positions, approximately 1.7 mCi (approximately 0.12 μg/kg) of the [^18F]labelled macrocyclic PD-L1 peptide radiotracer was administered via the installed VAP. 5 minute duration emission scans were then sequentially acquired for each bed position, beginning at position 1 centered approximately at the heart and moving toward the pelvis of the animal. Once images were acquired at each position (1 through 5), the imaging bed was moved back to bed position 1 and the process was repeated. Using this procedure, a total of 5 distinct images were acquired for each bed position over the duration of the imaging study.
# (§3) Individual images were reconstructed using a filtered back projection (FBP) algorithm with attenuation correction using the collected transmission images and corrected for radioisotope decay. Final composite images were then produced by aligning images from all 5 bed positions obtained from a single pass (i.e. a single composite image was produced from each set of sequential images from bed positions 1 through 5) covering the duration of the imaging study. […] To determine the nature of the specific binding in the cynomolgus monkey spleen a blocking study was conducted in the following manner.
# (§4) The cynomolgus monkey (4.4 kg, male) received a single IV injection of [^18F]labelled macrocyclic PD-L1 peptide radiotracer (˜1.7 mCi, mass: 0.21 μg/kg) at baseline. On the following day (post-dose), the same NHP received a single SC dose of 2 mg/kg anti-PD-L1 binding macrocyclic peptide at 2 hours before radiotracer injection (˜1.7 mCi, mass: 0.12 μg/kg).
# [5] = system: endogenous PD-L1; test: as above; conditions: for % Change of tracer SUV, baseline vs blocked: 2 mg/kg PD-L1 binding macrocyclic peptide
# Description: as §1, §2, §3, §4
structure (smiles),measurement,setting,value
CCCC[C@H]1C(=O)N(C)[C@@H](CCCC)C(=O)N[C@@H](CC(C)C)C(=O)N[C@H](C(=O)NCC(=O)N[C@@H](Cc2cn(CCOCCOCCOCCOc3cccnc3[18F])nn2)C(=O)O)CSCC(=O)N[C@@H](Cc2ccc(O)cc2)C(=O)N(C)[C@@H](C)C(=O)N[C@@H](CC(N)=O)C(=O)N2CCC[C@H]2C(=O)N[C@@H](CN)C(=O)N[C@@H](CC(C)C)C(=O)N2C[C@H](O)C[C@H]2C(=O)N[C@@H](Cc2c[nH]c3ccccc23)C(=O)N[C@@H](CCN)C(=O)N[C@@H](Cc2cn(CC(=O)O)c3ccccc23)C(=O)N1C [[^18F]labelled macrocyclic PD-L1 peptide],SUV,"[1]; 1 ug/kg, saline predose",0.298 SUV
same,SUV,[1]; 60 mg/kg PD-L1 binding macrocyclic peptide predose,0.05 SUV
same,radiotracer uptake in hPD-L1(+) L2987 xenografts relative to hPD-L1(−) HT-29 xenografts,[2]; SC 60 mg/kg PD-L1 binding macrocyclic peptide 30 minutes before radiotracer,0.7 ×
same,radiotracer uptake in hPD-L1(+) L2987 xenografts relative to hPD-L1(−) HT-29 xenografts,[2]; animals receiving only the radiotracer,8.1 ×
same,SUV in L2987,"[2]; 60 mg/kg PD-L1 binding macrocyclic peptide SC 30 min before tracer IV, 60 mg/kg",0.060 and 0.055 and 0.042 and 0.043
same,SUV in L2987,"[2]; saline (0 mg/kg PD-L1 binding macrocyclic peptide) SC 30 min before tracer IV, 90-100 minutes post-radiotracer injection",0.231 and 0.452 and 0.297 and 0.213
same,SUV,[3]; 1 ug/kg,0.037 SUV
same,SUV,[3]; 60 mg/kg,0.071 SUV
same,SUV,"[4]; duodenum, 0.21 ug/kg",8.84 SUV
same,SUV,"[4]; duodenum, 2 mg/kg",8.76 SUV
same,SUV,"[4]; gallbladder, 0.21 ug/kg",2.78 SUV
same,SUV,"[4]; gallbladder, 2 mg/kg",1.13 SUV
same,SUV,"[4]; kidney cortex, 0.21 ug/kg",8.42 SUV
same,SUV,"[4]; kidney cortex, 2 mg/kg",10.8 SUV
same,SUV,"[4]; kidney pelvis, 0.21 ug/kg",8.86 SUV
same,SUV,"[4]; kidney pelvis, 2 mg/kg",24.1 SUV
same,SUV,"[4]; liver, 0.21 ug/kg",9.16 SUV
same,SUV,"[4]; liver, 2 mg/kg",3.17 SUV
same,SUV,"[4]; lung, 0.21 ug/kg",1.86 SUV
same,SUV,"[4]; lung, 2 mg/kg",0.793 SUV
same,SUV,"[4]; muscle, 0.21 ug/kg",0.521 SUV
same,SUV,"[4]; muscle, 2 mg/kg",0.341 SUV
same,SUV,"[4]; spleen, 0.21 ug/kg",19.7 SUV
same,SUV,"[4]; spleen, 2 mg/kg",1.42 SUV
same,SUV,"[4]; thymus, 0.21 ug/kg",1.99 SUV
same,SUV,"[4]; thymus, 2 mg/kg",0.931 SUV
same,tracer uptake blocked in the spleen,[5]; 2 mg/kg of a specific PD-L1 binding macrocyclic peptide,93%
same,"% Change of tracer SUV, baseline vs blocked",[5]; Duodenum,−0.9%
same,"% Change of tracer SUV, baseline vs blocked",[5]; Gallbladder,−59.4%
same,"% Change of tracer SUV, baseline vs blocked",[5]; Kidney Cortex,28.8%
same,"% Change of tracer SUV, baseline vs blocked",[5]; Kidney Pelvis,171.7%
same,"% Change of tracer SUV, baseline vs blocked",[5]; Liver,−65.5%
same,"% Change of tracer SUV, baseline vs blocked",[5]; Lung,−57.3%
same,"% Change of tracer SUV, baseline vs blocked",[5]; Muscle,−34.7%
same,notable radiotracer accumulation (organs),[5]; PET images,"kidneys, spleen, and bladder"
same,"% Change of tracer SUV, baseline vs blocked",[5]; Spleen,−92.8%
same,"% Change of tracer SUV, baseline vs blocked",[5]; Thymus,−53.3%
same,background accumulation of radiotracer in background tissues such as muscle,[5]; visual inspection of PET images,very low
